From US6174875A, “Benzoquinoid ansamycins for the treatment of cardiac arrest and stroke” (priority 1999, dated 2001)

Legend:
HT22 cells = assay: MTT viability assay of glutamate-treated HT22 cells; format: cell-based, mouse
Experimental: HT22 cells were seeded on 60 mm tissue culture dishes at 300,000 cells per dish and grown overnight. Cells were then incubated in the presence of 5 mM glutamate for 20 hours. […] In order to provide a more accurate assessment of glutamate-induced oxidative toxicity, the ability of HT22 cells to metabolize 3-(4,5-[…]-2-yl)-2,5-diphenyl tetrazolium bromide (MTT) was assayed. The reduction of this dye by viable cells can easily be detected spectrophotometrically as described by Mosman (1983) J. Immunol. Methods 65:55 with reduced HT22 cell viability directly correlated with decreased metabolism of MTT (Shubert et al. (1992) Proc. Natl. Acad. Sci. USA 89:8264). HT22 cells were seeded on 96-well plates at 5,000 cells per well and grown for 12 hours. Cells were then treated with 2 mM, 5 mM or 10 mM concentrations of glutamate. […] After a total incubation period of 20 hours, cell viability was measured using an MTT assay as described by Li et al. (1997) Neuron 19:453. Briefly, 10 μl of MTT solution (5 mg/ml) was added to each well and cells incubated for an additional 4 hours. 100 μl of solubilization solution (50% dimethylformamide and 20% SDS, pH 4.8) was added and left on the cells 5 overnight, after which light absorption at 570 nm was measured. Values (% Viability) represent the average of quadruplicate (FIG. 1) or triplicate (FIG. 2) determinations±S.D. Similar results were obtained in a replicate experiment. Cell viability was expressed relative to control cells treated with GA or Herb alone.

[1] = tested on: hsp90-associated signaling molecules; details: other cultured cells; cited from earlier work
[2] = tested on: Male Sprague-Dawley rats (asphyxial cardiac arrest); format: in vivo, rat
Text: In rats, asphyxia produces circulatory arrest that can be reversed by mechanical ventilation and external chest compression (Katz et al. (1995) J. Cereb. Blood Flow Metab. 15:1032). […] Meaningful behavioral scores that predictable detect neurological deficits which closely mimic the types of deficits observed in patients that recover from cardiac arrest have been developed. Animal protocols were approved by the Institutional Animal Care and Use Committee of the University of Pittsburgh. Male Sprague-Dawley rats weighing 318±17 gm (Harlan, Indianapolis, Ind.) were anesthetized with 0.8% halothane in oxygen, endotracheally intubated using a 14 gauge angiocath, and mechanically ventilated using a Harvard rodent ventilator (0.9 cc/kg, 40 respirations/min). Blood pressure and arterial blood gases are monitored via a femoral arterial catheter (PE-50 tubing, IntraMedic), and drugs administered via a femoral venous catheter (PE-50). Tympanic temperature was maintained at 36.9±0.2° C. by manipulating an overhead 100 W lamp. After chemical paralysis with 2 mg/kg vecuronium and reducing the fraction of inspired oxygen to 0.21 (room air) mechanical ventilation was discontinued at end-expiration. Cardiac arrest (mean arterial pressure <10 mmHg) reliably occurred within 180 seconds. […]

COC1=C2C[C@@H](C)C[C@H](OC)[C@H](O)[C@@H](C)/C=C(\C)[C@H](OC(N)=O)[C@@H](OC)/C=C\C=C(/C)C(=O)NC(=CC1=O)C2=O [geldanamycin]
protection when GA is given following glutamate treatment (HT22 cells; 0.1 μg/ml GA added after glutamate (FIG. 1)): retained its capacity to protect HT22 cells from oxidative stress
protection against glutamate cytotoxicity (MTT viability) (HT22 cells; 0.1 μg/ml GA, 10 mM glutamate, 20 h): less effective at this higher dose of glutamate
protection against glutamate cytotoxicity (MTT viability) (HT22 cells; 0.1 μg/ml GA, 2 and 5 mM glutamate, 20 h (FIG. 1)): effective protection
time after glutamate exposure at which protection by GA was still apparent (HT22 cells; 0.1 μg/ml GA, 2 or 5 mM glutamate): 6 h
degradation of hsp90-associated signaling molecules [1]: selective degradation of hsp90-associated signaling molecules
neurological deficit scores vs vehicle ([2]; GA 1.0 mg/kg iv after return of spontaneous circulation, n=5, scored at 24, 48, 72 hours, Kruskal-Wallace Chi-square=6.54, p<0.05 (FIG. 4)): lower in rats treated with GA (n=5) than in rats treated with vehicle
physiological variables during the resuscitation phase vs vehicle ([2]; GA 1.0 mg/kg iv, rats): did not differ between groups
